Where “and” joins values, the source holds several entries; their conditions need not be identical. Identical values can stand only once.
What was measured:
[1] = Chemical stability in vitro; assay type: physicochemical; conditions: for native [18F]IV remaining intact: up to 1.5 h
Protocol: Furthermore, the chemical stability of [^18F]IV in vitro under physiological conditions was investigated. […] For formulation and storage, radioligand stability in acetonitrile (98%, 1 h, 80 °C) and in ethanol (98%, 1 h, 80 °C; ≥99%, 1.5 h, 40 °C) was proven.

[2] = Biodistribution after i.v. injection; assay type: in vivo, female CD-1 mice
Protocol: The organ distribution of [^18F]IV after i.v. injection was investigated in female CD-1 mice. Time-activity data for ^18F corresponding uptake in peripheral organs, in the brain and in particular in the striatum at 5, 30, 60 and 120 min p.i. are presented in Table 2.
Conscious mice received a tail-vein injection of about 300 kBq of [^18F]IV, dissolved in 200 µL isotonic saline. At 5, 30, 60 and 120 min p.i. animals (n = 3–6 per time) were anaesthetized, and blood and urine samples were taken. After sacrifice, organs of interest were removed, separated, weighed, and radioactivity was measured in a calibrated γ-counter (Wallac WIZARD, Perkin Elmer, Waltham, MA, USA). Striatum was dissected from the brain and investigated separately. The percentage of the injected dose per gram of wet tissue (% ID/g) was calculated by the quotient of tissue counts and initial dose counts, and weight of the tissue sample.

COc1cc2c(N3CC[C@@H](Oc4cnc5ccccc5n4)C3)ncnc2cc1OCC[18F] [[^18F]IV, (R)-7-(2-[^18F]Fluoroethoxy)-6-methoxy-4-(3-(quinoxalin-2-yloxy)pyrrolidin-1-yl)quinazoline]
native [18F]IV remaining intact ([1]; 0.01 M TRIS-HCl buffer (pH 7.4 at 21 °C), 40 °C): ≥ 99% | native [18F]IV remaining intact ([1]; 0.9% sodium chloride solution (pH 7.2), 40 °C, radio-TLC): ≥ 99% | radioligand stability ([1]; acetonitrile, 1 h, 80 °C): 98% | radioligand stability ([1]; ethanol, 1 h, 80 °C): 98% | radioligand stability ([1]; ethanol, 1.5 h, 40 °C): ≥ 99% | native [18F]IV remaining intact ([1]; physiological phosphate-saline (pH 7.2), 40 °C): 97% | striatum-to-blood ratio ([2]; 30 min p.i., mice): 1.0 | striatum-to-blood ratio ([2]; 60 min p.i., mice): 0.8 | striatum-to-blood ratio ([2]; 120 min p.i., mice): 0.8 | 18F uptake, Adrenals ([2]; control, 5 min p.i.): 25.4 ± 5.87 % ID/g Wet Weight | 18F uptake, Bladder ([2]; control, 5 min p.i.): 1.85 ± 0.39 % ID/g Wet Weight | 18F uptake, Blood ([2]; control, 5 min p.i.): 1.88 ± 0.08 % ID/g Wet Weight | 18F uptake, Brain ([2]; control, 5 min p.i.): 1.99 ± 0.21 % ID/g Wet Weight | 18F uptake, Colon ([2]; control, 5 min p.i.): 0.55 ± 0.05 % ID/g Wet Weight | 18F uptake, Femurs ([2]; control, 5 min p.i.): 2.00 ± 0.36 % ID/g Wet Weight | 18F uptake, Femurs (fl.) (flushed) ([2]; control, 5 min p.i.): 1.11 ± 0.32 % ID/g Wet Weight | 18F uptake, Gonads ([2]; control, 5 min p.i.): 2.58 ± 0.46 % ID/g Wet Weight | 18F uptake, Heart ([2]; control, 5 min p.i.): 4.01 ± 0.47 % ID/g Wet Weight | 18F uptake, Intestine ([2]; control, 5 min p.i.): 13.5 % ID/g Wet Weight and 13.5 ± 4.15 % ID/g Wet Weight | 18F uptake, Kidneys ([2]; control, 5 min p.i.): 7.65 ± 0.54 % ID/g Wet Weight | 18F uptake, Liver ([2]; control, 5 min p.i.): 20.5 % ID/g Wet Weight and 20.5 ± 1.87 % ID/g Wet Weight | 18F uptake, Lungs ([2]; control, 5 min p.i.): 4.01 ± 0.51 % ID/g Wet Weight | 18F uptake, Muscles ([2]; control, 5 min p.i.): 1.75 ± 0.12 % ID/g Wet Weight | 18F uptake, Pancreas ([2]; control, 5 min p.i.): 5.19 ± 0.42 % ID/g Wet Weight | 18F uptake, Plasma ([2]; control, 5 min p.i.): 3.97 ± 1.41 % ID/g Wet Weight | 18F uptake, Spleen ([2]; control, 5 min p.i.): 4.23 ± 0.51 % ID/g Wet Weight | 18F uptake, Stomach ([2]; control, 5 min p.i.): 6.14 ± 2.04 % ID/g Wet Weight | 18F uptake, Striatum ([2]; control, 5 min p.i.): 2.3 % ID/g Wet Weight and 2.32 % ID/g Wet Weight and 2.32 ± 0.49 % ID/g Wet Weight | 18F uptake, Thymus ([2]; control, 5 min p.i.): 3.10 ± 0.45 % ID/g Wet Weight | 18F uptake, Urine ([2]; control, 5 min p.i.): 56.4 % ID/g Wet Weight and 56.4 ± 105 % ID/g Wet Weight | 18F uptake, Bladder ([2]; control, 30 min p.i.): 3.51 ± 1.39 % ID/g Wet Weight | 18F uptake, Blood ([2]; control, 30 min p.i.): 1.69 ± 0.38 % ID/g Wet Weight | 18F uptake, Brain ([2]; control, 30 min p.i.): 1.54 ± 0.30 % ID/g Wet Weight | 18F uptake, Colon ([2]; control, 30 min p.i.): 0.88 ± 0.44 % ID/g Wet Weight | 18F uptake, Femurs ([2]; control, 30 min p.i.): 2.14 ± 1.13 % ID/g Wet Weight | 18F uptake, Femurs (fl.) (flushed) ([2]; control, 30 min p.i.): 0.67 ± 0.24 % ID/g Wet Weight | 18F uptake, Gonads ([2]; control, 30 min p.i.): 3.94 ± 0.84 % ID/g Wet Weight | 18F uptake, Heart ([2]; control, 30 min p.i.): 2.93 ± 0.71 % ID/g Wet Weight | 18F uptake, Intestine ([2]; control, 30 min p.i.): 43.2 ± 21.9 % ID/g Wet Weight | 18F uptake, Kidneys ([2]; control, 30 min p.i.): 5.34 ± 1.4 % ID/g Wet Weight | 18F uptake, Liver ([2]; control, 30 min p.i.): 16.4 ± 4.00 % ID/g Wet Weight | 18F uptake, Lungs ([2]; control, 30 min p.i.): 3.51 ± 1.26 % ID/g Wet Weight | 18F uptake, Muscles ([2]; control, 30 min p.i.): 1.31 ± 0.32 % ID/g Wet Weight | 18F uptake, Pancreas ([2]; control, 30 min p.i.): 3.14 ± 0.70 % ID/g Wet Weight | 18F uptake, Plasma ([2]; control, 30 min p.i.): 2.87 ± 0.54 % ID/g Wet Weight | 18F uptake, Spleen ([2]; control, 30 min p.i.): 2.85 ± 0.60 % ID/g Wet Weight | 18F uptake, Stomach ([2]; control, 30 min p.i.): 15.8 ± 6.09 % ID/g Wet Weight | 18F uptake, Striatum ([2]; control, 30 min p.i.): 1.69 ± 0.44 % ID/g Wet Weight | 18F uptake, Thymus ([2]; control, 30 min p.i.): 2.61 ± 0.50 % ID/g Wet Weight | 18F uptake, Urine ([2]; control, 30 min p.i.): 18.5 ± 16.8 % ID/g Wet Weight | 18F uptake, Adrenals ([2]; control, 60 min p.i.): 28.2 ± 11.4 % ID/g Wet Weight | 18F uptake, Bladder ([2]; control, 60 min p.i.): 2.60 ± 0.78 % ID/g Wet Weight | 18F uptake, Blood ([2]; control, 60 min p.i.): 1.45 ± 0.20 % ID/g Wet Weight | 18F uptake, Brain ([2]; control, 60 min p.i.): 1.08 ± 0.26 % ID/g Wet Weight | 18F uptake, Colon ([2]; control, 60 min p.i.): 1.08 ± 0.43 % ID/g Wet Weight | 18F uptake, Femurs ([2]; control, 60 min p.i.): 2.95 ± 3.73 % ID/g Wet Weight | 18F uptake, Femurs (fl.) (flushed) ([2]; control, 60 min p.i.): 0.58 ± 0.42 % ID/g Wet Weight | 18F uptake, Gonads ([2]; control, 60 min p.i.): 3.50 ± 1.22 % ID/g Wet Weight | 18F uptake, Heart ([2]; control, 60 min p.i.): 2.16 ± 0.45 % ID/g Wet Weight | 18F uptake, Intestine ([2]; control, 60 min p.i.): 42.8 % ID/g Wet Weight and 42.8 ± 33.5 % ID/g Wet Weight | 18F uptake, Kidneys ([2]; control, 60 min p.i.): 4.29 ± 0.93 % ID/g Wet Weight | 18F uptake, Liver ([2]; control, 60 min p.i.): 14.5 ± 4.54 % ID/g Wet Weight | 18F uptake, Lungs ([2]; control, 60 min p.i.): 2.37 ± 0.62 % ID/g Wet Weight | 18F uptake, Muscles ([2]; control, 60 min p.i.): 1.22 ± 0.28 % ID/g Wet Weight | 18F uptake, Pancreas ([2]; control, 60 min p.i.): 2.77 ± 0.85 % ID/g Wet Weight | 18F uptake, Plasma ([2]; control, 60 min p.i.): 2.59 ± 0.36 % ID/g Wet Weight | 18F uptake, Spleen ([2]; control, 60 min p.i.): 2.30 ± 0.25 % ID/g Wet Weight | 18F uptake, Stomach ([2]; control, 60 min p.i.): 12.6 ± 5.08 % ID/g Wet Weight | 18F uptake, Striatum ([2]; control, 60 min p.i.): 1.14 ± 0.29 % ID/g Wet Weight | 18F uptake, Thymus ([2]; control, 60 min p.i.): 2.08 ± 0.51 % ID/g Wet Weight | 18F uptake, Urine ([2]; control, 60 min p.i.): 23.1 ± 9.31 % ID/g Wet Weight | 18F uptake, Skin ([2]; control, 60 min p.i., single values, n = 2): 1.45 % ID/g Wet Weight and 1.17 % ID/g Wet Weight | 18F uptake, Adrenals ([2]; control, 120 min p.i.): 19.3 ± 13.2 % ID/g Wet Weight | 18F uptake, Bladder ([2]; control, 120 min p.i.): 1.62 ± 0.28 % ID/g Wet Weight | 18F uptake, Blood ([2]; control, 120 min p.i.): 1.05 ± 0.10 % ID/g Wet Weight | 18F uptake, Brain ([2]; control, 120 min p.i.): 0.77 ± 0.10 % ID/g Wet Weight | 18F uptake, Colon ([2]; control, 120 min p.i.): 3.49 ± 2.41 % ID/g Wet Weight | 18F uptake, Femurs ([2]; control, 120 min p.i.): 1.61 ± 0.35 % ID/g Wet Weight | 18F uptake, Femurs (fl.) (flushed) ([2]; control, 120 min p.i.): 1.15 ± 0.18 % ID/g Wet Weight | 18F uptake, Gonads ([2]; control, 120 min p.i.): 1.64 ± 0.26 % ID/g Wet Weight | 18F uptake, Heart ([2]; control, 120 min p.i.): 1.33 ± 0.20 % ID/g Wet Weight | 18F uptake, Intestine ([2]; control, 120 min p.i.): 49.3 ± 8.03 % ID/g Wet Weight | 18F uptake, Kidneys ([2]; control, 120 min p.i.): 2.13 ± 0.44 % ID/g Wet Weight | 18F uptake, Liver ([2]; control, 120 min p.i.): 7.05 % ID/g Wet Weight and 7.05 ± 1.10 % ID/g Wet Weight | 18F uptake, Lungs ([2]; control, 120 min p.i.): 1.46 ± 0.26 % ID/g Wet Weight | 18F uptake, Muscles ([2]; control, 120 min p.i.): 0.66 ± 0.01 % ID/g Wet Weight | 18F uptake, Pancreas ([2]; control, 120 min p.i.): 1.41 ± 0.07 % ID/g Wet Weight | 18F uptake, Plasma ([2]; control, 120 min p.i.): 2.13 ± 0.80 % ID/g Wet Weight | 18F uptake, Spleen ([2]; control, 120 min p.i.): 1.21 ± 0.24 % ID/g Wet Weight | 18F uptake, Stomach ([2]; control, 120 min p.i.): 10.1 ± 5.96 % ID/g Wet Weight | 18F uptake, Striatum ([2]; control, 120 min p.i.): 0.83 ± 0.10 % ID/g Wet Weight | 18F uptake, Thymus ([2]; control, 120 min p.i.): 1.26 ± 0.07 % ID/g Wet Weight | 18F uptake, Urine ([2]; control, 120 min p.i.): 30.9 % ID/g Wet Weight and 30.9 ± 8.06 % ID/g Wet Weight | uptake of radioactivity in femur ([2]; mice, time not specified): ~ 2 % ID/g | uptake of radioactivity in femur after removal of bone marrow ([2]; mice, time not specified): about 1 % ID/g

From paper PMC3763632, “Radiosynthesis and Radiotracer Properties of a 7-(2-[^18F]Fluoroethoxy)-6-methoxypyrrolidinylquinazoline for Imaging of Phosphodiesterase 10A with PET” (Pharmaceuticals, 2012)
